Measurements reported in patent publication US6379965B1, “Multifunctional complexes for gene transfer into cells comprising a nucleic acid bound to a polyamine and having an endosome disruption agent” (American Home Products Corporation, priority 1994, dated 2002).

Legend:
[1] = test system: Muscle Cells; experiment: Transfection of muscle cells in vivo with pCMVβ plasmid, β-galactosidase staining of quadriceps; set-up: species or system BALB-C mice; settings: 100 μg pCMVβ plasmid + 100 μg compound in 100 μL PBS, injected into rear quadriceps, approx. 96 hrs; control plasmid in 0.25% bupivicaine hydrochloride
Description: Solutions were prepared containing 100 μg of pCMVβ plasmid and 100 μg of either N^4-octylspermidine, N^4-dodecylspermidine or N^4-(5-cholestene-3′β-oxycarbonyl)aminopentyl)spermidine, each in 100 μL of phosphate buffered saline. The plasmid solution (100 μL) was injected into the rear quadriceps of 6-12 week old BALB-C mice. The mice were sacrificed approximately 96 hrs later and the entire quadriceps muscle tissue was removed. The muscle was fixed with formalin for 2 hrs, and assayed for β-galactosidase activity using 5-bromo-4-chloro-3-indolyl-β-D-galactopyranoside (1 mg/mL in tris/EDTA pH 8.5). All three injections were scored as positive since the blue color was more intense than the control: injection of 100 μg of pCMVβ plasmid injected in 100 μL of 0.25% bupivicaine hydrochloride in citrate buffer pH 6.0.

[2] = test system: Human hepatocellular carcinoma HuH7 cells; experiment: Transfection of adherent HuH7 cells in culture with pCMVβ plasmid, β-galactosidase activity; format: cell-based; settings: HuH7 lysate; 0.5 μg pCMVβ plasmid + 0.5 μg tri-galactosyl-lysyl-lysyl aminopentyl spermidine + 2.5 μg cholesteryl-oxycarbonyl aminopentyl spermidine in 100 μL Optimem; after 30 min
Description: Human hepatocellular carcinoma HuH7 cells were grown and seeded into a 96 well plate with 1-2×10^4 cells in 100 μL of minimal essential media α, modification with 10% serum. The plates were incubated in a 37° CO2 incubator until the cells were 60-80% confluent (approximately 24 hrs). The media was removed and the cells washed once with Optimem® (serum free media). Optimem® (100 μL) containing 0.5 μg of pCMVβ plasmid (from Clonetech, No. 6177-1), 0.5 μg of N^4-(5-[N^2,N^6-bis(β-3′-propionyl galactosyl-β1-4-thioglucoside)lysyl-N^6-(β-3′-propionyl galactosyl-β1-4-thioglucoside)lysyl]aminopentyl)-spermidine and 2.5 μg of N^4-(5-cholestene-3′β-oxycarbonyl)-aminopentyl)spermidine was added to the cells. The cells were incubated with the mixture for 4 hrs in a 37° CO2 incubator; thereafter 100 μL of media containing 20% serum was added and the incubation continued for an additional 20 hrs. Cells lysed with 0.5% NP-40 in 140 mM NaCl, 10 mM tris, 1.5 mM MgCl2 were assayed for β-galactosidase activity using o-nitrophenyl β-D-galactopyranoside, and gave A405=1.35 after 30 min. Cells grown in 6 well plates (25 mm diameter) and treated similarly were fixed with 2% paraformaldehyde and assayed for β-galactosidase activity using 5-bromo-4-chloro-3-indolyl β-D-galactopyranoside (J. Sambrook, et al., Molecular Cloning: A Laboratory Manual, Cold Spring Harbor, 1989).

[3] = test system: Liver Cells; experiment: Transfection of liver cells in vivo with pHBVSA plasmid, serum hepatitus B surface antigen immunoassay; set-up: species or system BALB-C mice; settings: 10 μg pHBVSA plasmid + 5 μg tri-galactosyl compound + 25 μg cholesteryl compound in 100 μL PBS, tail vein; 48 hrs post-injection; example in present tense
Description: […] The plasmid solution (100 μL) is injected into the tail vein of 6-12 week old BALB-C mice. The mice are sacrificed 48-120 hrs later and the serum tested for hepatitus B surface antigen using a commercial enzyme-linked immunoassay.

| Compound | β-galactosidase staining of quadriceps muscle, score versus control [1] | β-galactosidase activity using o-nitrophenyl β-D-galactopyranoside, A405 [2] | production of hepatitus B surface antigen in serum [3] |
| --- | --- | --- | --- |
| N^4-octylspermidine | positive |  |  |
| 4-[(N^2-[N^2,N^6-bis(3-[4-O(β-D-galactopyranosyl)-β-D-glucopyranosylthio]propionyl)lysyl]N^6-(3-[4-O-(β-D-galactopyranosyl)-β-D-glucopyranosylthio]-propionyl)lysinamido)pentyl]-1,8-diamino-4-azaoctane, acetate salt |  | 1.35 | greater than the positive control |
| CCCCCCCCCCCCN(CCCN)CCCCN.Cl.Cl.Cl [N^4-dodecylspermidine, N^4-dodecylspermidine trihydrochloride] | positive |  |  |
| CC(C)CCC[C@@H](C)[C@H]1CC[C@H]2[C@@H]3CC=C4C[C@@H](OC(=O)NCCCCCN(CCCN)CCCCN)CC[C@]4(C)[C@H]3CC[C@]12C.Cl [N^4-(5-cholestene-3′β-oxycarbonyl)aminopentyl spermidine hydrochloride Salt] | positive | 1.35 | greater than the positive control |
